Reference: patent US11035852B2, “Identifying drug candidates for treating polycystic kidney disease using organoids generated from primary cells” (UMC Utrecht Holding B.V., priority 2011, dated 2021)
Entries after “also recorded” stand apart in the source; their conditions may differ.

Columns and labels:
[1] = cited from earlier work
[2] = molecular target: T1, CFTR (Homo sapiens, UniProt P13569); conditions: cited from earlier work; for Ki: CFTR blocker, read-out: Potency: Ki
Target sequence in this assay (P13569 whole entry): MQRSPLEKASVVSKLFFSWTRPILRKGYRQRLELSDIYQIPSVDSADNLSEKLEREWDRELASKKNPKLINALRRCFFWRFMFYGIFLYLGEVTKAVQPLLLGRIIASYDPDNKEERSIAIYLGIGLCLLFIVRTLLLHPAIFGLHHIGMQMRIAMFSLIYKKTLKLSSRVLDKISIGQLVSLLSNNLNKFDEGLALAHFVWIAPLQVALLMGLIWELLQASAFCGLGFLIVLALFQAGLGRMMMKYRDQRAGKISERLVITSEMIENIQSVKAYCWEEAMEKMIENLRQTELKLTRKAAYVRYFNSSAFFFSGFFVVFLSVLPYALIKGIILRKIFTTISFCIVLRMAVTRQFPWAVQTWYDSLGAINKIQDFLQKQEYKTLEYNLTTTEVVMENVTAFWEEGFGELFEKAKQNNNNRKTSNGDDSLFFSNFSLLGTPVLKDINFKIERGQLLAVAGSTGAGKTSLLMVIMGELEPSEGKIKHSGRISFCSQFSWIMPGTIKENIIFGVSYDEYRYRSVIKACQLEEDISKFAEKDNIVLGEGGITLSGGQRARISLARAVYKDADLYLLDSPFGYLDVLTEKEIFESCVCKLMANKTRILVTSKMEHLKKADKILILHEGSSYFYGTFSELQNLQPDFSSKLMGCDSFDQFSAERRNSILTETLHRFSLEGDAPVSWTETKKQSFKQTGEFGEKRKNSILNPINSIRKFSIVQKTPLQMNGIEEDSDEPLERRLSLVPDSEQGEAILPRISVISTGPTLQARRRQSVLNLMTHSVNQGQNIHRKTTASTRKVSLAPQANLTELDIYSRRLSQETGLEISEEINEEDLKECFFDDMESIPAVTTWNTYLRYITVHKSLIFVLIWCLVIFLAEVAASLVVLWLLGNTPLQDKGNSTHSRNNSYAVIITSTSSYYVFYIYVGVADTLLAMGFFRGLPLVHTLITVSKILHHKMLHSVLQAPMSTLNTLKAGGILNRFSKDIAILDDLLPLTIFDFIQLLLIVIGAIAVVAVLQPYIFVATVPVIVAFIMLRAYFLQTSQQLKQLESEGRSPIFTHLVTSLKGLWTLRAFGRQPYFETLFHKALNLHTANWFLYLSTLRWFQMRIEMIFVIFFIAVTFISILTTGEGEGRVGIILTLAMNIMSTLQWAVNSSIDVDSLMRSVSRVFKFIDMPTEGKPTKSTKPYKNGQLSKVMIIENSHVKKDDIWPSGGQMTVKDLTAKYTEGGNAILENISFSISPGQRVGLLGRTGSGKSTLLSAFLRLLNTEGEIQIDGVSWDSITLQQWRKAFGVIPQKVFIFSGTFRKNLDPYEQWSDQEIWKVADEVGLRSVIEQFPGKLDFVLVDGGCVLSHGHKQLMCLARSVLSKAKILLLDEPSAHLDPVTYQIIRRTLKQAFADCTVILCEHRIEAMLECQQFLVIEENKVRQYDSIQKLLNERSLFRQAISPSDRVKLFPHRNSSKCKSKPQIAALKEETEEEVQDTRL

[3] = system: CFTR; test: Organoid swelling on compound addition (organoid origin not stated; FIG. 7, FIG. 32); type: cell-based
[4] = molecular target: T1, CFTR; type: cell-based
Target sequence in this assay (P13569 whole entry, looked up): as the sequence (P13569 whole entry) above

[5] = system: CFTR; conditions: CFTR potentiator; cited from earlier work
[6] = molecular target: CFTR (Mus musculus, UniProt P26361); test: Forskolin-induced swelling (FIS) of murine wild-type small intestinal organoids; conditions: live cell microscopy
Chain of CFTR (Mus musculus, UniProt P26361) (P26361 whole entry): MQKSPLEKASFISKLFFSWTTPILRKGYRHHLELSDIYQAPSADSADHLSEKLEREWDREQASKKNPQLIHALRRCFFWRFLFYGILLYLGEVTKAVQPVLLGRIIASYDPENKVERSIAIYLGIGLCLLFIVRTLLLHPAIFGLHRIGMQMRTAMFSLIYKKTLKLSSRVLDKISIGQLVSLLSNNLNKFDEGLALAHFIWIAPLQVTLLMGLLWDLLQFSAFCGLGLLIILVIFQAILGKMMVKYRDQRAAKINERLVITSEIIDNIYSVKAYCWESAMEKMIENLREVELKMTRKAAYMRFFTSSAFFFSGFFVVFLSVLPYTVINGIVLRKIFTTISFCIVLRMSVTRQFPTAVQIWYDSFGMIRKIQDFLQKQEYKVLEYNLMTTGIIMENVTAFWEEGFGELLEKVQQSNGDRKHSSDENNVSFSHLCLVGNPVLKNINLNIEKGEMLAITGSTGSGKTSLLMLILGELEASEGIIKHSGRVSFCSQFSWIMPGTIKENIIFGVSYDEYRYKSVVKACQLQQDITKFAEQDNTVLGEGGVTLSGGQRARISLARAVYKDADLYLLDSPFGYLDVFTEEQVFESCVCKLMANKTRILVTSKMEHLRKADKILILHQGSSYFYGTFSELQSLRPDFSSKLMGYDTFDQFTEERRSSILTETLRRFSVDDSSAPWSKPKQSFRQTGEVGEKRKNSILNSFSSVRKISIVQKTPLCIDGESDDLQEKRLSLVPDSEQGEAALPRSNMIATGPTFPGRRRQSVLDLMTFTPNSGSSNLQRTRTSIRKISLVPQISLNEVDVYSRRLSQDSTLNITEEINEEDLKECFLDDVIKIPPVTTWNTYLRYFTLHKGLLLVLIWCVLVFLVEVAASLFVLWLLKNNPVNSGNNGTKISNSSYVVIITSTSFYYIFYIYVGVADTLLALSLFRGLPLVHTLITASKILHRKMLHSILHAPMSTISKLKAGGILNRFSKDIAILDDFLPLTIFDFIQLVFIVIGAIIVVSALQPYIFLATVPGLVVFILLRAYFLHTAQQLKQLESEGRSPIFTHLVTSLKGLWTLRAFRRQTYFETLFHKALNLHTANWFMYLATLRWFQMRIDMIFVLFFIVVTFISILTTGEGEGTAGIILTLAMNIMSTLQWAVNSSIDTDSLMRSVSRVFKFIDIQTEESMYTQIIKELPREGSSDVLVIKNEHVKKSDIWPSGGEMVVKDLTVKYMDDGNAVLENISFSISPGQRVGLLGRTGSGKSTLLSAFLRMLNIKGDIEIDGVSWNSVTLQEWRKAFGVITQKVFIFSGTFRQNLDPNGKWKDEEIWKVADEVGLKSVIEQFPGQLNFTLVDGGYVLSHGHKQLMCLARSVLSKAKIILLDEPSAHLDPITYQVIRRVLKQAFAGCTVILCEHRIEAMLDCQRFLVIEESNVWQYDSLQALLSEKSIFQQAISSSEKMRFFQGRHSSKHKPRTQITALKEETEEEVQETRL

Structure (SMILES) | Ki [2] [µM] | Organoid swelling on compound addition [3] | further results
O=C(O)c1ccc(/C=C2\SC(=O)N(c3cccc(C(F)(F)F)c3)C2=O)cc1 [B8, 4-[[3-[3-(trifluoromethyl)phenyl]-2,4-dioxo-5-thiazolidinyli-dene]methyl]benzoic acid] | ~1 |  | Water solubility relative to Inh.-172 [1]: more water soluble than Inh.-172
NCCc1ccc(O)c(O)c1 [dopamine] |  | forskolin-like swelling | 
CC(C)(C)NCC(O)c1ccc(O)c(CO)c1 (stereo not shown) [salbutamol] |  | forskolin-like swelling | 
O=C1/C(=C/c2ccc(-c3nn[nH]n3)cc2)SC(=S)N1c1cccc(C(F)(F)F)c1 [B7, 5-[[4-(2h-tetrazol-5-yl)phenyl]methylene]-2-thioxo-3-[3-(trifluoromethyl)phenyl]-4-thiazolidinone] | ~1 |  | Water solubility relative to Inh.-172 [1]: more water soluble than Inh.-172
O=C(O)c1ccc(/C=C2/SC(=S)N(c3cccc(C(F)(F)F)c3)C2=O)cc1 [B1, 4-[4-Oxo-2-thioxo-3-(3-trifluoromethyl-phenyl)-thiazolidin-5-ylidenemethyl]-benzoic acid] | 0.3 |  | Effect of CFTR inhibitors on forskolin-stimulated swelling ([4]; Example 2, human healthy control organoids, 3 hours pre-incubation, 50 μM): reduced; Onset of inhibition ([2]; some cell types (eg. T84 cells), requiring prolonged incubation): Slow onset of inhibition
O=C1c2c(O)cc(O)cc2OCC1c1ccc(O)cc1 (stereo not shown) [P6, 5,7,Dihydroxy-3-(4-hydroxy-phenyl)-chroman-4-one] |  | rapid organoid swelling | Potency: Ks [5]: Reference #** 8 Name: Genistein (discontinued— available from Sigma #G6649) Potency: Ks = 10 to 30 microM Solvent: DMSO
C=C[C@@]1(C)CC(=O)[C@]2(O)[C@@]3(C)[C@@H](O)CCC(C)(C)[C@@H]3[C@H](O)[C@H](OC(C)=O)[C@@]2(C)O1 [forskolin, (3R,4aR,5S,6S,6aS,10S,10aR,10bS)-6,10,10b-trihydroxy-3,4a,7,7,10a-pentamethyl-1-oxo-3-vinyldodecahydro-1H-benzo[f]chromen-5-yl acetate] |  |  | Organoid swelling induced by stimulus ([4]; human healthy control organoids): rapid forskolin-stimulated swelling; Increase in organoid size ([4]; human organoids, in the space of 120 minutes (FIG. 8)): more than double in size; Organoid swelling on forskolin addition [6]: rapid expansion of the lumen and total organoid surface area; also recorded: dose-dependent relation between forskolin and increase of surface area over time
CC(NCCc1ccc(O)cc1)C(O)c1ccc(O)cc1 (stereo not shown) [ritodrine] |  | forskolin-like swelling | 
CNC[C@H](O)c1ccc(O)c(O)c1 [epinephrine] |  | forskolin-like swelling | 
